Test results: patent US20100267561A1, “HERBICIDAL PYRIDAZINONE DERIVATIVES” (priority 2007, published 2010)

Tests used:
Assay in all cases: Test B pre-/postemergence plant response
Format in all cases: in vivo
[1] = tested on: soybean (Glycine max); conditions: for Soybean plant response rating: 8 g ai/ha
Summary of the method: (§1)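 Preemergence and postemergence (plants 2-18 cm, 1- to 4-leaf stage) applications used test chemicals in a non-phytotoxic solvent with surfactant. Plants were held in a greenhouse 13 to 15 days, then rated visually against controls on a 0-100 scale (0 no effect, 100 complete control).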

[2] = tested on: catchweed bedstraw (Galium aparine); conditions: Preemergence
Summary of the method: as §1

[3] = tested on: kochia (Kochia scoparia); conditions: for Kochia plant response rating: 8 g ai/ha
Summary of the method: as §1

[4] = tested on: common ragweed (Ambrosia elation); conditions: for Ragweed plant response rating: 8 g ai/ha
Summary of the method: as §1

[5] = tested on: goosegrass (Eleusine indica); conditions: for Goosegrass plant response rating: 8 g ai/ha
Summary of the method: as §1

[6] = tested on: Russian thistle (Salsola iberica); conditions: Preemergence
Summary of the method: as §1

[7] = tested on: giant foxtail (Setaria faberii); conditions: for Foxtail, Giant plant response rating: 8 g ai/ha
Summary of the method: as §1

[8] = tested on: johnsongrass (Sorghum halepense); conditions: for Johnsongrass plant response rating: 8 g ai/ha
Summary of the method: as §1

[9] = tested on: woolly cupgrass (Eriochloa villosa); conditions: for Cupgrass, Woolly plant response rating: 8 g ai/ha
Summary of the method: as §1

[10] = tested on: lambsquarters (Chenopodium album); conditions: for Lambsquarters plant response rating: 8 g ai/ha
Summary of the method: as §1

[11] = tested on: eastern black (E.B.) nightshade (Solanum ptycanthum); conditions: Preemergence
Summary of the method: as §1

[12] = tested on: blackgrass (Alopecurus myosuroides); conditions: for Blackgrass plant response rating: 8 g ai/ha
Summary of the method: as §1

[13] = tested on: Italian ryegrass (Lolium multiflorum); conditions: for Ryegrass, Italian plant response rating: 8 g ai/ha
Summary of the method: as §1

[14] = tested on: pigweed (Amaranthus retroflexus); conditions: for Pigweed plant response rating: 8 g ai/ha
Summary of the method: as §1

[15] = Postemergence, 16 g ai/ha, scale 0 to 100
[16] = Postemergence, 62 g ai/ha, scale 0 to 100, 0 no effect, 100 complete control
[17] = Preemergence, 16 g ai/ha, scale 0 to 100 (0 no effect, 100 complete control)
[18] = Preemergence, 31 g ai/ha, 0 to 100 scale, 0 no effect, 100 complete control
[19] = Preemergence, 62 g ai/ha, scale 0 to 100
[20] = 16 g ai/ha, scale 0 to 100 (0 no effect, 100 complete control)
[21] = 31 g ai/ha, 0 to 100 scale, 0 no effect, 100 complete control
[22] = Postemergence, 31 g ai/ha, scale 0 to 100, 0 no effect, 100 complete control

## Cc1cc(-c2ccc(Cl)cc2)nn1-c1c(OC(=O)C(C)C)cnn(C)c1=O [Compound 34]
[1]; postemergence, 0-100 scale
  Soybean plant response rating: 0
[1]; [15]
  Plant response rating, Soybean: 0
[1]; [16]
  Plant response rating, Soybean: 0
[1]; [17]
  Plant response rating, Soybean: 0
[1]; [18]
  Plant response rating, Soybean: 0
[1]; [19]
  Plant response rating, Soybean: 0
[1]; Preemergence, scale 0 to 100
  Soybean plant response rating: 0
[2]; [20]
  Plant response rating, Galium: 0
[2]; [21]
  Plant response rating, Galium: 0
[2]; 62 g ai/ha, scale 0 to 100
  Plant response rating, Galium: 0
[2]; 8 g ai/ha, scale 0 to 100
  Galium plant response rating: 0
[3]; postemergence, 0-100 scale
  Kochia plant response rating: 0
[3]; [15]
  Plant response rating, Kochia: 0
[3]; [22]
  Plant response rating, Kochia: 0
[3]; [16]
  Plant response rating, Kochia: 0
[3]; [17]
  Plant response rating, Kochia: 0
[3]; [18]
  Plant response rating, Kochia: 0
[3]; [19]
  Plant response rating, Kochia: 0
[3]; Preemergence, scale 0 to 100
  Kochia plant response rating: 0
[4]; postemergence, 0-100 scale
  Ragweed plant response rating: 0
[4]; [15]
  Plant response rating, Ragweed: 0
[4]; [22]
  Plant response rating, Ragweed: 0
[4]; [16]
  Plant response rating, Ragweed: 0
[4]; [17]
  Plant response rating, Ragweed: 0
[4]; [18]
  Plant response rating, Ragweed: 0
[4]; [19]
  Plant response rating, Ragweed: 0
[4]; Preemergence, scale 0 to 100
  Ragweed plant response rating: 0
[5]; postemergence, 0-100 scale
  Goosegrass plant response rating: 50
[5]; [15]
  Plant response rating, Goosegrass: 55
[5]; [22]
  Plant response rating, Goosegrass: 70
[5]; [16]
  Plant response rating, Goosegrass: 80
[5]; [17]
  Plant response rating, Goosegrass: 85
[5]; [18]
  Plant response rating, Goosegrass: 98
[5]; [19]
  Plant response rating, Goosegrass: 100
[5]; Preemergence, scale 0 to 100
  Goosegrass plant response rating: 55
[6]; [20]
  Plant response rating, Russian Thistle: 0
[6]; [21]
  Plant response rating, Russian Thistle: 0
[6]; 62 g ai/ha, scale 0 to 100
  Plant response rating, Russian Thistle: 0
[6]; 8 g ai/ha, scale 0 to 100
  Russian Thistle plant response rating: 0
[7]; postemergence, 0-100 scale
  Foxtail, Giant plant response rating: 80
[7]; [15]
  Plant response rating, Foxtail, Giant: 90
[7]; [22]
  Plant response rating, Foxtail, Giant: 100
[7]; [16]
  Plant response rating, Foxtail, Giant: 100
[7]; [17]
  Plant response rating, Foxtail, Giant: 100
[7]; [18]
  Plant response rating, Foxtail, Giant: 100
[7]; [19]
  Plant response rating, Foxtail, Giant: 100
[7]; Preemergence, scale 0 to 100
  Foxtail, Giant plant response rating: 98
[8]; postemergence, 0-100 scale
  Johnsongrass plant response rating: 75
[8]; [15]
  Plant response rating, Johnsongrass: 95
[8]; [22]
  Plant response rating, Johnsongrass: 98
[8]; [16]
  Plant response rating, Johnsongrass: 100
[8]; [17]
  Plant response rating, Johnsongrass: 95
[8]; [18]
  Plant response rating, Johnsongrass: 100
[8]; [19]
  Plant response rating, Johnsongrass: 100
[8]; Preemergence, scale 0 to 100
  Johnsongrass plant response rating: 65
[9]; postemergence, 0-100 scale
  Cupgrass, Woolly plant response rating: 75
[9]; [15]
  Plant response rating, Cupgrass, Woolly: 90
[9]; [22]
  Plant response rating, Cupgrass, Woolly: 100
[9]; [16]
  Plant response rating, Cupgrass, Woolly: 100
[9]; [17]
  Plant response rating, Cupgrass, Woolly: 90
[9]; [18]
  Plant response rating, Cupgrass, Woolly: 95
[9]; [19]
  Plant response rating, Cupgrass, Woolly: 95
[9]; Preemergence, scale 0 to 100
  Cupgrass, Woolly plant response rating: 55
[10]; postemergence, 0-100 scale
  Lambsquarters plant response rating: 0
[10]; [15]
  Plant response rating, Lambsquarters: 0
[10]; [22]
  Plant response rating, Lambsquarters: 0
[10]; [16]
  Plant response rating, Lambsquarters: 0
[10]; [17]
  Plant response rating, Lambsquarters: 0
[10]; [18]
  Plant response rating, Lambsquarters: 0
[10]; [19]
  Plant response rating, Lambsquarters: 0
[10]; Preemergence, scale 0 to 100
  Lambsquarters plant response rating: 0
[11]; [20]
  Plant response rating, Nightshade, E. B.: 0
[11]; [21]
  Plant response rating, Nightshade, E. B.: 0
[11]; 62 g ai/ha, scale 0 to 100
  Plant response rating, Nightshade, E. B.: 0
[11]; 8 g ai/ha, scale 0 to 100
  Nightshade, E. B. plant response rating: 0
[12]; postemergence, 0-100 scale
  Blackgrass plant response rating: 0
[12]; [15]
  Plant response rating, Blackgrass: 75
[12]; [22]
  Plant response rating, Blackgrass: 75
[12]; [16]
  Plant response rating, Blackgrass: 90
[12]; [17]
  Plant response rating, Blackgrass: 85
[12]; [18]
  Plant response rating, Blackgrass: 100
[12]; [19]
  Plant response rating, Blackgrass: 100
[12]; Preemergence, scale 0 to 100
  Blackgrass plant response rating: 0
[13]; postemergence, 0-100 scale
  Ryegrass, Italian plant response rating: 70
[13]; [15]
  Plant response rating, Ryegrass, Italian: 85
[13]; [22]
  Plant response rating, Ryegrass, Italian: 95
[13]; [16]
  Plant response rating, Ryegrass, Italian: 100
[13]; [17]
  Plant response rating, Ryegrass, Italian: 100
[13]; [18]
  Plant response rating, Ryegrass, Italian: 100
[13]; [19]
  Plant response rating, Ryegrass, Italian: 100
[13]; Preemergence, scale 0 to 100
  Ryegrass, Italian plant response rating: 100
[14]; postemergence, 0-100 scale
  Pigweed plant response rating: 0
[14]; [15]
  Plant response rating, Pigweed: 0
[14]; [22]
  Plant response rating, Pigweed: 0
[14]; [16]
  Plant response rating, Pigweed: 0
[14]; [17]
  Plant response rating, Pigweed: 0
[14]; [18]
  Plant response rating, Pigweed: 0
[14]; [19]
  Plant response rating, Pigweed: 0
[14]; Preemergence, scale 0 to 100
  Pigweed plant response rating: 0
